Reference: patent US10197557B2, “Small molecules for endothelial cell activation” (The Regents of the University of California, priority 2011, dated 2019)

Test system: Primary human umbilical endothelial cells (EC)
Experiment: Biological platform: EC-monocyte co-culture, flow cytometry profiling (CD40, CD209, CD163) across 10 parameters
Format: cell-based
Conditions: Prestwick library of FDA approved compounds (FIG. 1B)
Method: The biological platform or assay described herein can be embodied in different ways (see, e.g., FIGS. 1 and 9). An embodiment of the biological platform of invention is provided below: • 1. Primary human umbilical endothelial cells (EC) are adhered in 96 or 384-well plates at confluency for 2 hours. • 2. Control stimuli (or compounds of interest) are added to EC for 5 hours. • 3. Compounds are removed, EC washed, and primary human peripheral blood monocytes are added. • 4. After 24 hours, 25 μl of supernatant is removed for MIP1α and MIP1β analysis. • 5. After 42-48 total hours of co-culture, cells are harvested for flow cytometry. • 6. Cells are labeled with: CD40, CD209, and CD163. • a. Parameter 1: Gate on EC/monocytes by using FSC vs SSC on whole co-culture population • b. Parameter 2: Use SSC vs. CD40 to separate monocytes from EC. Note: loss of EC population reflects compound toxicity. • c. Parameter 3: Gate on CD40+ monocytes • d. Parameter 4: Determine CD40 MFI on CD40+ macrophages • e. Parameter 5: Determine CD209 MFI on CD40+ macrophages • f. Parameter 6: Determine CD163 MFI on CD40+ macrophages • g. Parameter 7: Subtract vehicle control MFIs from each sample of interest. In the example below (FIGS. 2A and 2B), EC stimulation with IFNγ may promote EC-triggered MΦ with CD40 MFI=40, CD209 MFI=60, CD163=10. DMSO treated EC promote MΦ with CD40=20, CD209 MFI=30, and CD163=100. […]

CN(C)C(=N)N=C(N)N [metformin]
position in the profile of pro-inflammatory (enhanced) and anti-inflammatory (dampening) compounds: dampening subset
